How the values were obtained:
[1] = test system: steady-state neuromuscular block induced by rocuronium bromide (Roc); assay: Reversal of neuromuscular blockade in vivo, anaesthetized guinea pig, rocuronium
Experimental: (§1) Male Dunkin-Hartley guinea pigs (bodyweight: 600–900 g) were anaesthetized by i.p. administration of 10 mg/kg pentobarbitone and 1000 mg/kg urethane. After tracheotomy, the animals were artificially ventilated using a Harvard small animal ventilator. A catheter was placed into the carotid artery for continuous monitoring of arterial blood pressure and the taking of blood samples for blood gas analysis. Heart rate was derived from the blood pressure signal. The sciatic nerve was stimulated (rectangular pulses of 0.5 ms duration at 10 s (0.1 Hz) intervals at a supramaximal voltage, using a Grass S88 Stimulator) and the force of M. gastrocnemius contractions was measured using a Grass FT03 force-displacement transducer. Contractions, blood pressure and heart rate were recorded on a multichannel Grass 7D recorder. Catheters were placed in both jugular veins. One catheter was used for the continuous infusion of a neuromuscular blocking agent. The infusion rate of the neuromuscular blocking agent was increased until a steady-state block of 85–90% was obtained. The other catheter was used for administration of increasing doses of the reversal agent. During continuous infusion of the neuromuscular blocking agent, single doses of increasing concentration of reversal agent were given. At the end of the experiment, the measured force of muscle contractions was plotted against the concentration of reversal agent, and using regression analysis techniques, the 50% reversal concentration was calculated.
Reversal of neuromuscular block in vivo, induced by rocuronium bromide, was carried out as described in Example 5.

[2] = test system: steady-state neuromuscular block induced by vecuronium bromide (Vec); assay: Reversal of neuromuscular blockade in vivo, anaesthetized guinea pig, vecuronium; conditions: Vec infusion, 85–90% block, anaesthetized guinea pigs, i.v. reversal agent; mean
Experimental: as §1

[3] = test system: neuromuscular block induced by rocuronium in isolated mouse hemidiaphragm; assay: Reversal of neuromuscular block in vitro: isolated mouse hemidiaphragm preparation; conditions: for maximum reversal / EC50: rocuronium bromide 3.6 μM in the bath, 95% block; for maximum reversal / EC50 / concentration of chemical chelator at maximum reversal: mouse hemidiaphragm; for EC50: read-out: 50% reversal concentration; for Mouse hemidiaphragm: maximum reversal (%) / concentration of chemical chelator at maximum reversal: 3.1 μM rocuronium; for Reversal of the neuromuscular blocking action of rocuronium (in words): rocuronium-induced block
Experimental: Hemidiaphragms, with phrenic nerves attached, were removed from euthanized male mice (Institute of Cancer Research; bodyweight: 20–60 g). The preparations were mounted on a tissue holder and placed in a tissue bath filled with a modified Krebs-Henseleit solution (composition: 118 mM NaCl, 30 mM NaHCO3, 5 mM KCl, 1 mM KH2PO4, 1 mM MgSO4, 30 mM glucose and 2.5 mM CaCl2) at 37° C. and bubbled with 95% oxygen and 5% carbondioxide. One end of the preparation was connected with a siliconized silk suture to a Grass FT03 force-displacement transducer. An initial force of 10 mN was applied. The phrenic nerve was placed on a bipolar platinum electrode and was stimulated with rectangular pulses of 0.2 ms duration at 20 s (0.05 Hz) intervals at a supramaximal voltage, using a Grass S88 Stimulator. Contractions were recorded on a four channel Grass 79D recorder.
Increasing amounts of reversal agent were then administered into the bath at intervals of 10 min. The % maximum reversal was established. At the end of the experiment, the measured muscle contractions force was plotted against the concentration of reversal agent, and using regression analysis techniques, the 50% reversal concentration was calculated.
After induction of neuromuscular block by rocuronium, the % maximum reversal produced by the addition of a number of γ-cyclodextrin derivatives (compounds 11–16), a cyclic octasaccharide comprising 4 rhamnosyl-mannopyranosyl units (compound 24), or a number of paracyclophane derivatives (compounds 17–21 and 23) are presented in Table II.
Reversal of neuromuscular block in vitro was carried out using the mouse hemidiaphragm preparation as described in Example 6.

[4] = test system: steady-state neuromuscular block induced by pancuronium bromide (Pan); assay: Reversal of neuromuscular blockade in vivo, anaesthetized guinea pig, pancuronium; conditions: Pan infusion, 85–90% block, anaesthetized guinea pigs, i.v. reversal agent; mean
Experimental: as §1

[5] = test system: steady-state neuromuscular block induced by suxamethonium chloride (Sux; succinylcholine); assay: Reversal of neuromuscular blockade in vivo, anaesthetized guinea pig, suxamethonium; conditions: Sux infusion, 85–90% block, anaesthetized guinea pigs, i.v. reversal agent; mean
Experimental: as §1

[6] = test system: steady-state neuromuscular block induced by rapacuronium bromide (Rap; Org 9487); assay: Reversal of neuromuscular blockade in vivo, anaesthetized guinea pig, rapacuronium; conditions: Rap infusion, 85–90% block, anaesthetized guinea pigs, i.v. reversal agent; mean
Experimental: as §1

[7] = Roc infusion, 85–90% block, anaesthetized guinea pigs, i.v. reversal agent, mean
[8] = rocuronium bromide, anaesthetised guinea pig, as in Example 5

Q: Which results are given for “2-hydroxy-3-trimethylammonio propyl-β-CD (DS = 3.5) [Compound 3]”?
A: Dose (ED50) producing 50% reversal of steady-state neuromuscular block [1, 7]: 518 (2) μmol.kg^−1; Dose (ED50) producing 50% reversal of steady-state neuromuscular block [2]: 1400 (1) μmol.kg^−1

Q: Which results are given for 2-hydroxypropyl-β-CD [Compound 10]?
A: Dose (ED50) producing 50% reversal of steady-state neuromuscular block [1, 7]: 33 (3) μmol.kg^−1; Dose (ED50) producing 50% reversal of steady-state neuromuscular block [2]: 1598 (4) μmol.kg^−1

Q: With `O=S(=O)(O)c1cc2c(O)c(c1)Cc1cc(S(=O)(=O)O)cc(c1O)Cc1cc(S(=O)(=O)O)cc(c1O)Cc1cc(S(=O)(=O)O)cc(c1O)Cc1cc(S(=O)(=O)O)cc(c1O)Cc1cc(S(=O)(=O)O)cc(c1O)C2` [4-sulfonic calix[6]arene, 4-Sulfonic calix[6]arene] as the molecule, how does the “Dose (ED50) producing 50% reversal of steady-state neuromuscular block” value (shortened to “Dose (ED50) producing 50% reversal”) [1, 8] read?
A: 5.1 µmol/kg

Q: What about the maximum reversal [3] of the same molecule?
A: 120%

Q: And the EC50 [3]?
A: 34 µM

Q: Which results are given for `O=S(=O)(O)c1cc2c(O)c(c1)Cc1cc(S(=O)(=O)O)cc(c1O)Cc1cc(S(=O)(=O)O)cc(c1O)Cc1cc(S(=O)(=O)O)cc(c1O)Cc1cc(S(=O)(=O)O)cc(c1O)Cc1cc(S(=O)(=O)O)cc(c1O)Cc1cc(S(=O)(=O)O)cc(c1O)Cc1cc(S(=O)(=O)O)cc(c1O)C2` [4-sulfonic calix[8]arene]?
A: Dose (ED50) producing 50% reversal of steady-state neuromuscular block [1, 8]: 34 µmol/kg; maximum reversal [3]: 124%; EC50 [3]: 36 µM

Q: `OC[C@H]1O[C@@H]2O[C@H]3[C@H](O)[C@@H](O)[C@@H](O[C@H]4[C@H](O)[C@@H](O)[C@@H](O[C@H]5[C@H](O)[C@@H](O)[C@@H](O[C@H]6[C@H](O)[C@@H](O)[C@@H](O[C@H]7[C@H](O)[C@@H](O)[C@@H](O[C@H]1[C@H](O)[C@H]2O)O[C@@H]7CO)O[C@@H]6CO)O[C@@H]5CO)O[C@@H]4CO)O[C@@H]3CO` [Compound 1, α-cyclodextrin] was tested. Which “Dose (ED50) producing 50% reversal” value [1, 7] did it give?
A: 1575 (2) μmol.kg^−1

Q: What about the “Dose (ED50) producing 50% reversal” value [2] of the same molecule?
A: 2610 (1) μmol.kg^−1

Q: `O=C(O)c1cc2ccc1OCCCCCOc1ccc(cc1C(=O)O)Cc1ccc(c(C(=O)O)c1)OCCCCCOc1ccc(cc1C(=O)O)C2` [Compound 17, 1,7,21,27-tetraoxa-9,17,29,37-tetracarboxy[7.1.7.1]paracyclophane] was tested. Which “Mouse hemidiaphragm: maximum reversal (%)” value (“Mouse hemidiaphragm … (%)” for short) [3] did it give?
A: 11%

Q: And the “concentration of chemical chelator at maximum reversal” value (from here on “concentration of chemical chelator”) [3]?
A: 360 µM

Q: With `O=C(O)c1cc2ccc1OCc1ccc(cc1)COc1ccc(cc1C(=O)O)Cc1ccc(c(C(=O)O)c1)OCc1ccc(cc1)COc1ccc(cc1C(=O)O)C2` [Compound 18, 1,10,24,33-tetraoxa-12,20,35,43-tetracarboxy-[2.2.1.2.2.1]paracyclophane] as the molecule, how does the “Mouse hemidiaphragm … (%)” value [3] read?
A: 61%

Q: What about the “concentration of chemical chelator” value [3] of the same molecule?
A: 288 µM

Q: What about the “Reversal of the neuromuscular blocking action of rocuronium (in words)” value (shortened to “Reversal … (in words)”) [3] of the same molecule?
A: efficiently blocked

Q: Which “Mouse hemidiaphragm … (%)” value [3] does the source give for `O=C(O)CC(=O)N1CCCCCN(C(=O)CC(=O)O)c2ccc(cc2)Cc2ccc(cc2)N(C(=O)CC(=O)O)CCCCCN(C(=O)CC(=O)O)c2ccc(cc2)Cc2ccc1cc2` [Compound 19, N, N′, N″, N′″-Tetrakis(carboxyacetyl)-1,7, 21, 27-tetraaza[7.1.7.1] paracyclophane] here?
A: 2.4%

Q: What about the “concentration of chemical chelator” value [3] of the same molecule?
A: 108 µM

Q: What does the source list for `O=C(O)CCCC(=O)N1CCCCCN(C(=O)CCCC(=O)O)c2ccc(cc2)Cc2ccc(cc2)N(C(=O)CCCC(=O)O)CCCCCN(C(=O)CCCC(=O)O)c2ccc(cc2)Cc2ccc1cc2` [Compound 20, N, N′, N″, N′″-Tetrakis(4-carboxybutyryl)-1,7, 21, 27-tetraaza[7.1.7.1] paracyclophane]?
A: Mouse hemidiaphragm: maximum reversal (%) [3]: 8.7%; concentration of chemical chelator at maximum reversal [3]: 72 µM

Q: `O=C(O)CCC(=O)N1CCCCCN(C(=O)CCC(=O)O)c2ccc(cc2)Cc2ccc(cc2)N(C(=O)CCC(=O)O)CCCCCN(C(=O)CCC(=O)O)c2ccc(cc2)Cc2ccc1cc2` [Compound 21, N, N′,N″, N′″-Tetrakis(3-carboxypropionyl)-1,7, 21, 27-tetraaza[7.1.7.1]para-cyclophane] was tested. Which “Mouse hemidiaphragm … (%)” value [3] did it give?
A: 0%

Q: And the “concentration of chemical chelator” value [3]?
A: 360 µM

Q: For `O=C(O)CCC(=O)N1CC2CCC(CC2)CN(C(=O)CCC(=O)O)c2ccc(cc2)Cc2ccc(cc2)N(C(=O)CCC(=O)O)CC2CCC(CC2)CN(C(=O)CCC(=O)O)c2ccc(cc2)Cc2ccc1cc2` [Compound 23, N, N′, N″, N′″-Tetra (3-carboxypropionyl)-3,4,5,6,7,8,26,27,28,29,30,31-dodecahydro-1,10,24,33-tetraaza[2.2.1.2.2.1]paracyclophane], which “Mouse hemidiaphragm … (%)” value [3] is on record?
A: 90%

Q: What about the “concentration of chemical chelator” value [3] of the same molecule?
A: 58 µM

Q: And the “Reversal … (in words)” value [3]?
A: efficiently blocked

Q: For carboxyethyl-β-CD (DS = 3) [Compound 8], which “Dose (ED50) producing 50% reversal” value [1, 7] is on record?
A: 42 (3) μmol.kg^−1

Q: And the “Dose (ED50) producing 50% reversal” value [2]?
A: 103 (2) μmol.kg^−1

Q: What about the “Dose (ED50) producing 50% reversal” value [4] of the same molecule?
A: 479 (2) μmol.kg^−1

Q: And the “Dose (ED50) producing 50% reversal” value [5]?
A: 408 (2) μmol.kg^−1

Q: What about the “Dose (ED50) producing 50% reversal” value [6] of the same molecule?
A: 412 (2) μmol.kg^−1

Q: For “carboxymethyl-β-CD (DS 3–3.5) [Compound 7]”, which “Dose (ED50) producing 50% reversal” value [1, 7] is on record?
A: 139 (3) μmol.kg^−1

Q: For “carboxymethyl-β-CD (DS = 3.5) [Compound 2]”, which “Dose (ED50) producing 50% reversal” value [1, 7] is on record?
A: 134 (2) μmol.kg^−1

Q: What about the “Dose (ED50) producing 50% reversal” value [2] of the same molecule?
A: 800 (1) μmol.kg^−1

Q: For “cyclo[(1–4)-α-L-rhamnopyranosyl-(1–4)-α-D-mannopyranosyl]-tetraoside [Compound 24]”, which “Mouse hemidiaphragm … (%)” value [3] is on record?
A: 86%

Q: And the “concentration of chemical chelator” value [3]?
A: 288 µM

Q: What about the “Reversal … (in words)” value [3] of the same molecule?
A: efficiently blocked

Q: And the “Reversal … (in words)” value ([3]; listed as cyclo-[(1–4)-α-L-rhamno-pyranosyl-(1–4)-α-D-mannopyranosyl]tetraoside)?
A: effective

Q: What does the source list for “per 2,6-dimethyl-β-CD (DS = 12.6) [Compound 4]”?
A: Dose (ED50) producing 50% reversal of steady-state neuromuscular block [1, 7]: 70 (2) μmol.kg^−1; Dose (ED50) producing 50% reversal of steady-state neuromuscular block [2]: 1313 (4) μmol.kg^−1

Q: Which “Dose (ED50) producing 50% reversal” value [1, 7] does the source give for “β-cyclodextrin-phosphate sodium salt (DS = 3) [Compound 5]” here?
A: 280 (3) μmol.kg^−1

Q: For “β-cyclodextrin-phosphate sodium salt (DS = 8) [Compound 6]”, which “Dose (ED50) producing 50% reversal” value [1, 7] is on record?
A: 120 (2) μmol.kg^−1

Q: How did the “Dose (ED50) producing 50% reversal” value [1, 7] turn out when “γ-cyclodextrin-phospate sodium salt (DS = 7) [Compound 12]” was run?
A: 52 (2) μmol.kg^−1

Q: What about the “Mouse hemidiaphragm … (%)” value [3] of the same molecule?
A: 17%

Q: And the “concentration of chemical chelator” value [3]?
A: 360 µM

Reference: US7265099B1, “Use of chemical chelators as reversal agents for drug-induced neuromuscular block” (Organon N.V., priority 1999, dated 2007)
